Calls of active or inactive are those of the source. The rule behind the calls is not given here.
Tests used:
[1] = system: MT3; assay: Antitumor activity against adriablastin-resistant human MT3 cells expressing p-glycoprotein xenografted in NMRI nude mouse at 6 mg/kg, iv administered on day 13 and 20; format: functional, organism-based; parameters: dose 6 mg/kg
[2] = system: Mus musculus; assay: Toxicity in nude mouse assessed as body weight change at 100.8 mg/kg, iv measured daily for 13 days; format: organism-based; parameters: dose 100.8 mg/kg, route intravenous; conditions: in vivo, 312 h
[3] = system: Mus musculus; assay: Toxicity in NMRI nude mouse xenografted with adriablastin-resistant human MT3 cells expressing p-glycoprotein assessed as body weight loss at 5 mg/kg, ip administered on day 12, 13, 19, 20 prior to doxorubicin challenge of 6 mg/kg, iv on day 13 and 20; format: organism-based; conditions: in vivo
[4] = system: MT3; assay: Potentiation of doxorubicin-induced cytotoxicity in adriablastin-resistant human MT3 cells expressing p-glycoprotein xenografted in NMRI nude mouse at 5 mg/kg, ip administered on day 12, 13, 19, 20 prior to doxorubicin challenge of 6 mg/kg, iv on day 13 and 20; format: functional, organism-based

For COc1cccc2c1C(=O)c1c(O)c3c(c(O)c1C2=O)C[C@@](O)(C(=O)CO)C[C@@H]3O[C@H]1C[C@H](N)[C@H](O)[C@H](C)O1, the Activity [1] was “inactive”.

In the case of CCOC/C=C/c1ccc(-c2nc(-c3ccc(N(C)C)cc3)c(-c3ccc(NC(=O)CCNC(=O)OCc4ccc(NC(=O)[C@H](CCCCN)NC(=O)[C@H](Cc5ccccc5)NC(=O)CC[C@H](NC(=O)CCCCCN5C(=O)C=CC5=O)C(=O)N[C@@H](Cc5ccccc5)C(=O)N[C@@H](CCCCN)C(=O)Nc5ccc(COC(=O)N[C@H]6C[C@H](O[C@H]7C[C@@](O)(C(=O)CO)Cc8c(O)c9c(c(O)c87)C(=O)c7c(OC)cccc7C9=O)O[C@@H](C)[C@H]6O)cc5)cc4)cc3)[nH]2)cc1.O=C(O)C(F)(F)F.O=C(O)C(F)(F)F, the Activity [2] is reported as “Non-toxic”.

For CCOC/C=C/c1ccc(-c2nc(-c3ccc(N(C)C)cc3)c(-c3ccc(NC(=O)CCN)cc3)[nH]2)cc1, the Activity [3] was -23% and the Activity [4] was “Active”.

Source: ChEMBL document CHEMBL1143362, “Development of dual-acting prodrugs for circumventing multidrug resistance” (Bioorg Med Chem Lett, 2009)
